In ChEMBL document CHEMBL1137622, “8-Hydroxy-3,4-dihydropyrrolo[1,2-a]pyrazine-1(2H)-one HIV-1 integrase inhibitors” (Bioorg Med Chem Lett, 2007):
The source made the active and inactive calls. The rule behind the calls is not given here.

Legend:
[1] = molecular target: Human immunodeficiency virus type 1 integrase (Human immunodeficiency virus 1, UniProt Q7ZJM1); assay: Inhibition of recombinant HIV1 integrase strand transfer activity
[2] = system: Human immunodeficiency virus 1; assay: Antiviral activity against HIV1 3B infected in human MT4 cells after 24 hrs by p24 ELISA; assay type: functional; settings: Human immunodeficiency virus 1, 3B, MT4, 24 h; read-out: CIC95
MT4 = assay: Cytotoxicity against human MT4 cells at concentrations up to 20 uM; assay type: cell-based
[3] = system: Human immunodeficiency virus 1; assay: Antiviral activity against HIV1 at concentrations upto 20 uM; assay type: functional, organism-based
[4] = Clearance in rat at 2 mg/kg, iv; assay type: ADME, organism-based; set-up: dose 2 mg/kg, route intravenous; settings: in vivo
[5] = Half life in rat at 2 mg/kg, iv; assay type: ADME, organism-based; set-up: dose 2 mg/kg, route intravenous; settings: in vivo

Sequence of Human immunodeficiency virus type 1 integrase (Q7ZJM1 whole entry): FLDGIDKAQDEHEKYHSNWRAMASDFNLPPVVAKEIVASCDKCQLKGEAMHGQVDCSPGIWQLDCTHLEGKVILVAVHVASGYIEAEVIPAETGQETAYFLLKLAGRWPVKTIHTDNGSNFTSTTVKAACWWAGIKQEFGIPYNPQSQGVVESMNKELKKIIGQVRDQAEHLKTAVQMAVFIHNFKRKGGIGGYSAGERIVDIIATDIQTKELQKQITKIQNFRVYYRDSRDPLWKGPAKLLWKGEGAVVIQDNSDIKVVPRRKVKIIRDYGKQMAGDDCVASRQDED
Description for physchem: Dissociation constant, pKa of the compound

CNC(=O)c1cn2c(c1O)C(=O)N(Cc1ccc(Cl)cc1)CC2
IC50 [1]: 60 nM
IC95 [2]: 2500 nM

CCOC(=O)c1cn2c(c1O)C(=O)N(Cc1cccc(F)c1)CC2
IC50 [1]: 110 nM
IC95 [2]: 9380 nM
Activity (MT4): Non-toxic

O=C(O)c1cn2c(c1O)C(=O)N(Cc1ccccc1)CC2
IC50 [1]: 80 nM
IC95 [2]: > 20000 nM
Activity [3]: inactive
pKa (physchem): 3.8

CCOC(=O)c1cn2c(c1O)C(=O)N(Cc1ccccc1)CC2
IC50 [1]: 220 nM
IC95 [2]: 20000 nM
Activity (MT4): Non-toxic

O=C1c2c(O)c3n(c2CCN1Cc1ccc(F)cc1)CCN(Cc1ccc(F)cc1)C3=O
IC50 [1]: < 10 nM
IC95 [2]: 70 nM

CCOC(=O)c1cn2c(c1O)C(=O)N(Cc1ccc(Cl)c(Cl)c1)CC2
IC50 [1]: 10 nM
IC95 [2]: 310 nM
Activity (MT4): Non-toxic
clearance [4]: 30 mL/min/kg
half-life [5]: 30 min

CCOC(=O)c1cn2c(c1O)C(=O)N(Cc1ccc(Cl)cc1)CC2
IC50 [1]: 40 nM
IC95 [2]: 1020 nM
Activity (MT4): Non-toxic

CN1CCn2c3c(c(O)c2C1=O)C(=O)N(Cc1ccc(F)cc1)CC3
IC50 [1]: < 10 nM
IC95 [2]: 160 nM

CN1CCc2c(c(O)c3n2CCN(Cc2ccc(F)cc2)C3=O)C1=O
IC50 [1]: < 10 nM
IC95 [2]: 390 nM

CNC(=O)c1cn2c(c1O)C(=O)N(Cc1ccc(Cl)c(Cl)c1)CC2
IC50 [1]: 40 nM
IC95 [2]: 1250 nM

O=C(O)c1cn2c(c1O)C(=O)N(Cc1cccc(Cl)c1)CC2
IC50 [1]: 10 nM
IC95 [2]: > 20000 nM
Activity [3]: inactive
pKa (physchem): 3.8

CCOC(=O)c1cn2c(c1O)C(=O)N(Cc1cccc(Cl)c1)CC2
IC50 [1]: 30 nM
IC95 [2]: 1250 nM
Activity (MT4): Non-toxic

CCOC(=O)c1cn2c(c1O)C(=O)N(Cc1ccc(F)cc1)CCC2
IC50 [1]: > 5000 nM

CCOC(=O)c1cn2c(c1O)C(=O)N(Cc1ccc(F)cc1)CC2
IC50 [1]: 40 nM
IC95 [2]: 3230 nM
Activity (MT4): Non-toxic

CNC(=O)c1cn2c(c1O)C(=O)N(Cc1ccc(F)cc1)CC2
IC50 [1]: 80 nM
IC95 [2]: 10000 nM

CCOC(=O)c1cn2c(c1O)C(=O)N(Cc1ccc(F)c(Cl)c1)CC2
IC50 [1]: 20 nM
IC95 [2]: 940 nM
Activity (MT4): Non-toxic
